Results reported in patent US20240208953A1, “"Cyclopenta[c]pyrrol Negative Allosteric Modulators of NR2B"” (Novartis AG, priority 2021, published 2024).
pIC50: −log10 of the molar value.

Columns and labels:
NR2B = NR2B (Rattus norvegicus (Rat), UniProt Q00960); experiment: NR2B rat cortical neuron calcium influx assay; type: cell-based; conditions: rat cortical neurons, glutamate and glycine stimulated calcium influx
In short: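 Primary cortical neurons from E18 Sprague Dawley rat embryos, cultured 2 days, were loaded with Calcium 6 dye in 1.8 mM Ca-HBSS and preincubated with compound 2 h at 37° C. Glutamate plus glycine was added and fluorescence read for 2 min as peak/baseline ratio; duplicate dose-response curves gave IC50 (μM) and maximal inhibition.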

hERG = hERG (Homo sapiens (Human), UniProt Q12809); experiment: hERG Qpatch assay; type: cell-based; conditions: Table 2, hERG expressing CHO-K1 cells
Protocol: Example 3. hERG Qpatch Assay Protocol
This assay was performed by the method described in Skepper et al., J. Med. Chem. 2020, 63, 7773-7816:
hERG expressing cell lines were produced in-house at Novartis using CHO-K1 T-Rex inducible plasmid system (Invitrogen) as described previously (Cao et al., Assay Drug Dev. Technol. 2010, 8, 766-780). Cell lines were maintained in Ham's F12 nutrient mixture containing 10% FBS, blasticidin ([…]; InvivoGen), hygromycin B ([…]; InvivoGen), Zeocin ([…], Invitrogen), and neomycin ([…], Invitrogen) using SelecT automated cell culture system (TAP Biosystems, Cambridge, U.K.). hERG and hCav1.2 channels expression was induced with tetracycline (0.25-1 μg/mL, Invitrogen) at least 24 h prior to the experiment.
hERG currents were recorded using the Qpatch automated patch clamp systems (Sophion Bioscience Inc., North Brunswick, NJ) in the whole (single) cell configuration. hERG expressing CHO-K1 cells were harvested with Detachin (Genlantis) and stored in the modified serum-free SFM-2 media (Life Technologies) at room temperature. The extracellular solution contained (in mM) NaCl (145), KCl (4), MgCl2 (1), CaCl2 (2), and HEPES (10), pH 7.4, with NaOH. The intracellular solution contained KCl (135), MgCl2 (1.75), CaCl2 (5.4), EGTA (10), K2-ATP (4), and HEPES (10), pH 7.2, with KOH. After whole cell configuration was achieved, the cell was held at −90 mV, and a 0.1 s pulse to −50 mV was delivered to measure the leaking current, which was subtracted from the tail current online. Then the cell was depolarized to +20 mV for 4 s (prepulse), followed by a 4 s test pulse to −50 mV to reveal the hERG tail current. To monitor changes in the current amplitude, this voltage protocol was repeatedly applied every 20 s. Test compounds were first diluted in DMSO for six dose-response experiments and then dissolved in the extracellular solution using Freedom EVO liquid handling robotic system (Tecan, Männedorf, Switzerland). The final DMSO concentration in samples was 0.3% v/v. Amitriptyline (Sigma) was tested as a positive control. Data were analyzed using in-house developed MatLab-based program (MathWorks, Natick, MA

P-glycoprotein (P-gp) = P-glycoprotein (P-gp) (Homo sapiens (Human), UniProt P08183); experiment: MDCK-MDR1 permeability / efflux assay; type: in vitro ADME; conditions: for efflux ratio at 120 min, 10 μM: dog, MDCK-MDR1, pH 7.4, efflux ratio, read-out: MDCK-MDR1 ER
In short: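 MDCK-MDR1 monolayers grown 4 days on Transwells; 10 μM compound in HBSS/10 mM HEPES pH 7.4 with 0.02% BSA, run A→B and B→A for 120 min at 37 °C without shaking. Donor and receiver concentrations by LC-MS/MS; Papp and recovery calculated, efflux ratio from B→A vs A→B.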

Chain of P-glycoprotein (P-gp) (P08183 whole entry): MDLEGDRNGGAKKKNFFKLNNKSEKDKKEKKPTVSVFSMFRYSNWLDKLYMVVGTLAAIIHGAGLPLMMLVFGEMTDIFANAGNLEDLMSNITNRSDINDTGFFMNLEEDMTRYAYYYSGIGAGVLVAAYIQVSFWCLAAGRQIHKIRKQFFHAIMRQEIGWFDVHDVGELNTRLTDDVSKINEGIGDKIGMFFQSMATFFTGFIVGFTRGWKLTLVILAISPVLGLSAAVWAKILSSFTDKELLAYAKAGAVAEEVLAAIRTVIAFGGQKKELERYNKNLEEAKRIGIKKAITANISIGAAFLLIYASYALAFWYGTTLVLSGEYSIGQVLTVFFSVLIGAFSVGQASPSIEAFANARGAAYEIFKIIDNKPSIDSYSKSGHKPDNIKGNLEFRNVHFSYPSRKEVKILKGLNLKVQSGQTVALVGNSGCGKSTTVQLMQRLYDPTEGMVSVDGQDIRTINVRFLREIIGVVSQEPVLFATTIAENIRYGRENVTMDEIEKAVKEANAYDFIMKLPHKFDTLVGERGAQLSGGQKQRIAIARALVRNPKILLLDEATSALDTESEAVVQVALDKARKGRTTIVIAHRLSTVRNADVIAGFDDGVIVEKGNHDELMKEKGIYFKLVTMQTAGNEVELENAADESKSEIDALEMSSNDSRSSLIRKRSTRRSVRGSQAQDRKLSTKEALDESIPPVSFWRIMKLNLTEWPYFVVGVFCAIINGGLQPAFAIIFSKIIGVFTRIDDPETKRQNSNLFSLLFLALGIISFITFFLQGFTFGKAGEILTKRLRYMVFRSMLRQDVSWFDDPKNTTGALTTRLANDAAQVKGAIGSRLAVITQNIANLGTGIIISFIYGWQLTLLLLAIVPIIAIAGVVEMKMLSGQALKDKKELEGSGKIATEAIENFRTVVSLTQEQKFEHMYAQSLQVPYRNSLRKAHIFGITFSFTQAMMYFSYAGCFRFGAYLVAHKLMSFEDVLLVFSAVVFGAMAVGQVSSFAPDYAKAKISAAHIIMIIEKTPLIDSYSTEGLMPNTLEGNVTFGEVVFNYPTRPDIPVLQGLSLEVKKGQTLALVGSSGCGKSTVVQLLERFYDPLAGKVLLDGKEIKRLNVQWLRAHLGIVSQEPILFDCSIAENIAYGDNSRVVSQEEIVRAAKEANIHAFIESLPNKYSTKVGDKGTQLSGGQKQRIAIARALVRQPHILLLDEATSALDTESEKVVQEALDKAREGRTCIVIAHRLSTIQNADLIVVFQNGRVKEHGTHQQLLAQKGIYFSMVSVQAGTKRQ
Chain of hERG (Q12809 whole entry): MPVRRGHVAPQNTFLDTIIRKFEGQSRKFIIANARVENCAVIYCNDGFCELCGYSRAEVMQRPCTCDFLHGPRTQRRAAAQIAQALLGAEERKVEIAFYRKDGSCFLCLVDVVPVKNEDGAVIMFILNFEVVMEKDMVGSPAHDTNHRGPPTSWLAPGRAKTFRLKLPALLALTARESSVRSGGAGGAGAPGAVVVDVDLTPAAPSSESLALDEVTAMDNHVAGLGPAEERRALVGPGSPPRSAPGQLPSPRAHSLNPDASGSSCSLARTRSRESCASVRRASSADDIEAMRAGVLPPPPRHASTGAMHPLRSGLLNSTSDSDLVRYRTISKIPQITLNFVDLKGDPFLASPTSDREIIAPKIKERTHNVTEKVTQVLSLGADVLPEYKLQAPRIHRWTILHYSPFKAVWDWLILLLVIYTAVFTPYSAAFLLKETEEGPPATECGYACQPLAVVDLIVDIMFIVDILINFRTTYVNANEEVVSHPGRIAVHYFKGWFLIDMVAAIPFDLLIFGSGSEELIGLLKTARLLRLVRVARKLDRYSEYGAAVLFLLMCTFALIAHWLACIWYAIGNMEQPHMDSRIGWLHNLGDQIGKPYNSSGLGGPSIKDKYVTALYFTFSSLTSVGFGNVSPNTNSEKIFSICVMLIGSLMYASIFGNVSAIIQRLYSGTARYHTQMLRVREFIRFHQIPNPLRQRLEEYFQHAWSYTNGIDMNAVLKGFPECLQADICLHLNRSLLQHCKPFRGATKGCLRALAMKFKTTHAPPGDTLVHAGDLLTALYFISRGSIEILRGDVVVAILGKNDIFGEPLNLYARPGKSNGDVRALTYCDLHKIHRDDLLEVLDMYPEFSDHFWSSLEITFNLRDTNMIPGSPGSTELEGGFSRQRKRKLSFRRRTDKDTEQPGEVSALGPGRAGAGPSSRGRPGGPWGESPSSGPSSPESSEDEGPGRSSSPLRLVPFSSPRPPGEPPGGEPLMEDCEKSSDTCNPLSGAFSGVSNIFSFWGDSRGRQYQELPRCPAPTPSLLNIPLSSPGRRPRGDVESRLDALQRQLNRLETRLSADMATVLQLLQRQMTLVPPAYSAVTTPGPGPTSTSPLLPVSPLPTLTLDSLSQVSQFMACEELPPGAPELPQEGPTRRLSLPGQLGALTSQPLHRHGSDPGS
Chain of NR2B (Q00960 27-1482, other chains not shown): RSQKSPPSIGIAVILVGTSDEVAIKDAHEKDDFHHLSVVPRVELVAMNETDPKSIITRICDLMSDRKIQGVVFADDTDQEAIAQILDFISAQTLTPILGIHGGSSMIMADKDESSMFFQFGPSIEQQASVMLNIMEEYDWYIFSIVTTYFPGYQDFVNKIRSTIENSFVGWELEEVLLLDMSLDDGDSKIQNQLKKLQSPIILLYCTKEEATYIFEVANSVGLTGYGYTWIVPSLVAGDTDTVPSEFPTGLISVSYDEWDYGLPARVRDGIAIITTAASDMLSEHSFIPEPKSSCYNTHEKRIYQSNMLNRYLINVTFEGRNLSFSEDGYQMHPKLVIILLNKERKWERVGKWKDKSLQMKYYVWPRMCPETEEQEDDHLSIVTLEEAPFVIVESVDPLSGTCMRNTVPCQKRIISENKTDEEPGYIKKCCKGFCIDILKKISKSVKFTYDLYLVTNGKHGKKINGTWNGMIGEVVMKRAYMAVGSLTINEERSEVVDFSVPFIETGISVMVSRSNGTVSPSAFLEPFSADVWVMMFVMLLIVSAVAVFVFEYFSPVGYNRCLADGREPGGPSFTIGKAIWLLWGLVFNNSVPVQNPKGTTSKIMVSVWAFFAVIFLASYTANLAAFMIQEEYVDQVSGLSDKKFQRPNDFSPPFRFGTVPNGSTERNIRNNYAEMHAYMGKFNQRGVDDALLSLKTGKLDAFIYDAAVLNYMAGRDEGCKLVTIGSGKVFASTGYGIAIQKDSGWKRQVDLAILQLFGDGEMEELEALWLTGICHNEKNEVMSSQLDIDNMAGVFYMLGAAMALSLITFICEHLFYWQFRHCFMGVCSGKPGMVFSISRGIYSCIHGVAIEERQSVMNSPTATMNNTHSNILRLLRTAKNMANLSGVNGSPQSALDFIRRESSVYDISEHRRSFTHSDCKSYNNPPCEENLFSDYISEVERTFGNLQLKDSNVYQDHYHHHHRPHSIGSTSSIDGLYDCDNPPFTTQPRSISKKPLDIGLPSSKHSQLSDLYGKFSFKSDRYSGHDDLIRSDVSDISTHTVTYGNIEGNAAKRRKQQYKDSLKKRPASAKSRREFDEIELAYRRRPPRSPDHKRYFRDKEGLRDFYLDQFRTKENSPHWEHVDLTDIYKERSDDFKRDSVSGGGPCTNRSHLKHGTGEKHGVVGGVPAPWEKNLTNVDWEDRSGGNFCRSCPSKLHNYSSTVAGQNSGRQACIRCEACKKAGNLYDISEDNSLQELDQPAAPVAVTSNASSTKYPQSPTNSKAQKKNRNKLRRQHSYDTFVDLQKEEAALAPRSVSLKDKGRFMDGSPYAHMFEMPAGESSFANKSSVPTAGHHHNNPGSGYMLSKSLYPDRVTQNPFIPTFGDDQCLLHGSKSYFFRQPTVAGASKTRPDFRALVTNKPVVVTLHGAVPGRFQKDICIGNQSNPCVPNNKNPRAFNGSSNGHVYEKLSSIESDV

SMILES | pIC50 (NR2B) | pIC50 (hERG) | efflux ratio at 120 min, 10 μM (P-glycoprotein (P-gp)) | MDCK-MDR1 ER (P-glycoprotein (P-gp); efflux ratio, 10 μM, 120 min)
O=c1[nH]c2c(F)cc([C@H](O)CN3C[C@H]4C[C@H](Oc5ccccc5)C[C@@]4(O)C3)cc2s1 (single isomer, unassigned) [Example 42B] | 10.40 | 6.10 | 0.9 | –
O[C@@H](CN1C[C@H]2C[C@H](Oc3ccc(F)cc3F)C[C@@]2(O)C1)c1ccc2[nH]ncc2c1 [Example 21] | 7.96 | 5.44 | – | 1.94
O=C1Nc2c(F)cc([C@H](O)CN3C[C@H]4C[C@H](Oc5ccccc5)C[C@@]4(O)C3)cc2CO1 (single isomer, unassigned) [Example 33B] | 8.44 | 5.31 | 0.91 | –
